Results: ChEMBL document CHEMBL5647692, “The novel dual PI3K/mTOR inhibitor NVP-BGT226 displays cytotoxic activity in both normoxic and hypoxic hepatocarcinoma cells” (Oncotarget, 2015)
Activity calls are given as the source filed them. The rule behind the calls is not given here.

Tests used:
[1] = Inhibition of PI3K/Akt/mTOR signaling pathway in human HepG2 cells assessed as reduction in phosphorylation of mTORC1/2 incubated for 1 hr under normoxia condition by Western blotting analysis; type: cell-based; conditions: dose 0.25-1 µM
SNU-475 [2] = assay: Induction of autophagy in human SNU-475 cells assessed as increase in lipidation of LC3A/B II level at 0.5 uM incubated for 24 hrs in presence of chloroquine by Western blot analysis; type: functional, cell-based
[3] = Inhibition of PI3K/Akt/mTOR signaling pathway in human Mahlavu cells assessed as reduction in phosphorylation of Akt at 1 to 10 nM incubated for 1 hr under normoxia condition by Western blotting analysis; type: cell-based; conditions: dose 1-10 nM
[4] = Inhibition of PI3K/Akt/mTOR signaling pathway in human SNU-449 cells assessed as reduction in phosphorylation of Akt at 0.001 to 0.01 uM incubated for 1 hr under hypoxia condition by Western blotting analysis; type: cell-based; conditions: dose 0.001-0.01 µM
Mahlavu [5] = assay: Induction of apoptosis in human Mahlavu cells assessed as chromatin condensation under normoxia condition at 0.1 to 0.5 uM incubated for 24 hrs by DAPI staining based fluorescence microscope analysis; type: functional, cell-based; conditions: dose 0.1-0.5 µM
[6] = Inhibition of PI3K/Akt/mTOR signaling pathway in human SNU-475 cells assessed as reduction in S6 phosphorylation at 1 to 10 nM incubated for 1 hr under hypoxia condition by Western blotting analysis; type: cell-based; conditions: dose 1-10 nM
Hep 3B2 [7] = assay: Induction of apoptosis in human Hep3B cells assessed as cleaved Caspase 9 level at 0.5 uM incubated for 24 hrs by Western blotting analysis; type: functional, cell-based
[8] = Inhibition of PI3K/Akt/mTOR signaling pathway in human SNU-475 cells assessed as reduction in phosphorylation of Akt at 0.001 to 0.01 uM incubated for 1 hr under hypoxia condition by Western blotting analysis; type: cell-based; conditions: dose 0.001-0.01 µM
SNU-475 [9] = assay: Induction of apoptosis in human SNU-475 cells assessed as cleaved Caspase 9 level at 0.5 uM incubated for 24 hrs by Western blotting analysis; type: functional, cell-based
[10] = Inhibition of PI3K/Akt/mTOR signaling pathway in human SNU-475 cells assessed as reduction in phosphorylation of mTORC1/2 incubated for 1 hr under normoxia condition by Western blotting analysis; type: cell-based; conditions: dose 0.25-1 µM
Mahlavu [11] = assay: Induction of apoptosis in human Mahlavu cells assessed as necrotic cells at IC50 incubated for 24 hrs in presence of Z-VAD-fmk by Annexin-V/7-AAD staining based muse cell analyzer method (reference value: 0.67 %); type: functional
Mahlavu [12] = assay: Cytotoxicity against human Mahlavu cells assessed as reduction in cell viability incubated for 24 hrs under hypoxia condition by MTT assay; type: functional, cell-based
[13] = Inhibition of PI3K/Akt/mTOR signaling pathway in human Hep3B cells assessed as reduction in phosphorylation of mTORC1 substrate S6 incubated for 1 hr under normoxia condition by Western blotting analysis; type: cell-based; conditions: dose 0.25-1 µM
Mahlavu [14] = assay: Cytotoxicity against human Mahlavu cells assessed as reduction in cell viability incubated for 24 hrs under normoxia condition by MTT assay; type: functional, cell-based
SNU-475 [15] = assay: Induction of autophagy in human SNU-475 cells assessed as increase in lipidation of LC3I to LC3II at 0.5 uM incubated for 24 hrs by Western blot analysis; type: functional, cell-based
SNU-475 [16] = assay: Induction of autophagy in human SNU-475 cells assessed as increased expression of LC3A/B II level incubated for 24 hrs under hypoxia condition by Western blot analysis; type: functional, cell-based; conditions: dose 0.1-0.5 µM
[17] = Inhibition of PI3K/Akt/mTOR signaling pathway in human SNU-449 cells assessed as reduction in phosphorylation of GSK3 alpha/beta incubated for 1 hr under normoxia condition by Western blotting analysis; type: cell-based; conditions: dose 0.25-1 µM
[18] = molecular target: Hypoxia-inducible factor 1-alpha (Homo sapiens) (UniProt Q16665); assay: Inhibition of HIF-1alpha in human Hep3B cells incubated for 6 hrs under hypoxia condition by Western blot analysis; type: cell-based; conditions: dose 0.01-0.1 µM
Hypoxia-inducible factor 1-alpha (Homo sapiens), sequence (Q16665 whole entry, looked up): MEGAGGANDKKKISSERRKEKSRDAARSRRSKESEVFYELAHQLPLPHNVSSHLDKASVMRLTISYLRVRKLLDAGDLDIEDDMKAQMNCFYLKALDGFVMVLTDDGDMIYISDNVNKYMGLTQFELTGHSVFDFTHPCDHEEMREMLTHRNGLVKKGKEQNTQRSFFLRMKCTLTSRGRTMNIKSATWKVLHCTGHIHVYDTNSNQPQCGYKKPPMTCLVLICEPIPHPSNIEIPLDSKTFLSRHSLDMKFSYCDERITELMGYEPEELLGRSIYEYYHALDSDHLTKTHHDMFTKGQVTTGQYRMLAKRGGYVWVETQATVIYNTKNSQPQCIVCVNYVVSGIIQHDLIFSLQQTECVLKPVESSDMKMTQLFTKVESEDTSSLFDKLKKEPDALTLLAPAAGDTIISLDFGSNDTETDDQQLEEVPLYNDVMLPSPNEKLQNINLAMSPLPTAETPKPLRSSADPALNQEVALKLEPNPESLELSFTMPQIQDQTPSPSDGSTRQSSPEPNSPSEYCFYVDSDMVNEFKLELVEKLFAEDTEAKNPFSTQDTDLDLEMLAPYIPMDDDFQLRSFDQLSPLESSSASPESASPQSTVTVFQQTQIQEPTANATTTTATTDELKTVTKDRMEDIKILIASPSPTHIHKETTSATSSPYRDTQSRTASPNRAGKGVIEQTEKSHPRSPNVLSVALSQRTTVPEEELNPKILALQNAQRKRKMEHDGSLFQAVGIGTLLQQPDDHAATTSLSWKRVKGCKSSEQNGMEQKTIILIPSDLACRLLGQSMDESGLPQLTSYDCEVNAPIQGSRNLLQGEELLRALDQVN

[19] = Inhibition of PI3K/Akt/mTOR signaling pathway in human Mahlavu cells assessed as reduction in phosphorylation of mTORC1/2 incubated for 1 hr under normoxia condition by Western blotting analysis; type: cell-based; conditions: dose 0.25-1 µM
SNU-475 [20] = assay: Induction of apoptosis in human SNU-475 cells assessed as cleaved Caspase 7 level at 0.5 uM incubated for 24 hrs by Western blotting analysis; type: functional, cell-based
Mahlavu [21] = assay: Induction of apoptosis in human Mahlavu cells assessed as late apoptotic cells at 0.66 uM incubated for 24 hrs by Annexin-V/7-AAD staining based muse cell analyzer method (reference value: 2.24 %); type: functional
Hep 3B2 [22] = assay: Induction of apoptosis in human Hep3B cells assessed as cleaved Caspase 7 level at 0.5 uM incubated for 24 hrs by Western blotting analysis; type: functional, cell-based
Mahlavu [23] = assay: Induction of autophagy in human Mahlavu cells assessed as decreased expression of SQSTM1/p62 level incubated for 24 hrs under hypoxia condition by Western blot analysis; type: functional, cell-based; conditions: dose 0.1-0.5 µM
SNU-475 [24] = assay: Cytotoxicity against human SNU-475 cells assessed as reduction in cell viability at 0.5 to 5 uM incubated for 24 hrs by MTT assay; type: functional, cell-based; conditions: dose 0.5-5 µM
Mahlavu [25] = assay: Induction of autophagy in human Mahlavu cells assessed as increase in LC3I to LC3II conversion at 0.5 uM incubated for 24 hrs under hypoxia condition by Western blot analysis; type: functional, cell-based
[26] = Inhibition of PI3K/Akt/mTOR signaling pathway in human Mahlavu cells assessed as reduction in phosphorylation of Akt incubated for 1 hr under normoxia condition by Western blotting analysis; type: cell-based; conditions: dose 0.25-1 µM
SNU-449 [27] = assay: Cytotoxicity against human SNU-449 cells assessed as reduction in cell viability incubated for 24 hrs under hypoxia condition by MTT assay; type: functional, cell-based
SNU-449 [28] = assay: Cytotoxicity against human SNU-449 cells assessed as reduction in cell viability at 0.5 to 5 uM incubated for 24 hrs by MTT assay; type: functional, cell-based; conditions: dose 0.5-5 µM
Mahlavu [29] = assay: Anti-tumor activity against human Mahlavu cells assessed as reduction of VEGF level incubated for 24 hrs under hypoxia condition by Western blot analysis; type: functional, cell-based; conditions: dose 0.01-0.1 µM
Hep 3B2 [30] = assay: Anti-tumor activity against human Hep3B cells assessed as reduction of VEGF level incubated for 24 hrs under hypoxia condition by Western blot analysis; type: functional, cell-based; conditions: dose 0.01-0.1 µM
Mahlavu [31] = assay: Induction of apoptosis in human Mahlavu cells assessed as cleaved PARP level at 0.5 uM incubated for 24 hrs by Western blotting analysis; type: functional, cell-based
SNU-449 [32] = assay: Induction of apoptosis in human SNU-449 cells assessed as necrotic cells at IC50 concentration incubated for 24 hrs in presence of Z-VAD-fmk by Annexin-V/7-AAD staining based muse cell analyzer method (reference value: 0.95 %); type: functional
Hep 3B2 [33] = assay: Induction of cell cycle arrest in human Hep3B cells assessed as increase in accumulation of cells in G0/G1 phase incubated at 0.01 to 0.1 uM for 24 hrs by propidium iodide staining based muse cell analysis; type: functional; conditions: dose 0.01-0.1 µM
Mahlavu [34] = assay: Induction of autophagy in human Mahlavu cells assessed as reduction in cytotoxicity at 0.5 uM incubated for 24 hrs by MTT assay; type: functional, cell-based
[35] = Inhibition of PI3K/Akt/mTOR signaling pathway in human Mahlavu cells assessed as reduction in phosphorylation of Akt at 0.001 to 0.01 uM incubated for 1 hr under hypoxia condition by Western blotting analysis; type: cell-based; conditions: dose 0.001-0.01 µM

With `COc1ccc(-c2ccc3ncc4c(c3c2)n(-c2ccc(N3CCNCC3)c(C(F)(F)F)c2)c(=O)n4C)cn1` [BGT-226 FREE BASE] the inhibition [1] was “Dose-Dependent Effect”, the Activity (SNU-475 [2]) was “Active” and the inhibition [3] was “Active”. The inhibition [4] was “Active”, the Activity (Mahlavu [5]) was “Active” and the inhibition [6] was “Active”. The Activity (Hep 3B2 [7]) was “Active”, the inhibition [8] was “Active” and the Activity (SNU-475 [9]) was “Active”. The inhibition [10] was “Dose-Dependent Effect”, the Activity (Mahlavu [11]) was 0.54% and the Activity (Mahlavu [12]) was “Active”. The inhibition [13] was “Dose-Dependent Effect”, the Activity (Mahlavu [14]) was “Active” and the Activity (SNU-475 [15]) was “Active”. The Activity (SNU-475 [16]) was “Dose-Dependent Effect”, the inhibition [17] was “Dose-Dependent Effect” and the inhibition [18] was “Dose-Dependent Effect”. For the same molecule, the inhibition [19] was “Dose-Dependent Effect”, the Activity (SNU-475 [20]) was “Active” and the Activity (Mahlavu [21]) was 1.99%. The Activity (Hep 3B2 [22]) was “Active”, the Activity (Mahlavu [23]) was “Dose-Dependent Effect” and the Activity (SNU-475 [24]) was “Active”. For the same molecule, the Activity (Mahlavu [25]) was “Dose-Dependent Effect”, the inhibition [26] was “Dose-Dependent Effect” and the Activity (SNU-449 [27]) was “Active”. For the same molecule, the Activity (SNU-449 [28]) was “Active”, the Activity (Mahlavu [29]) was “Dose-Dependent Effect” and the Activity (Hep 3B2 [30]) was “Dose-Dependent Effect”. For the same molecule, the Activity (Mahlavu [31]) was “Active”, the Activity (SNU-449 [32]) was 0.45% and the Activity (Hep 3B2 [33]) was “Active”. The Activity (Mahlavu [34]) was “Active” and the inhibition [35] was “Active”.
